Data published in ChEMBL document CHEMBL1671617, “Correlation of antimicrobial resistance with beta-lactamases, the OmpA-like porin, and efflux pumps in clinical isolates of Acinetobacter baumannii endemic to New York City” (2008).
In brackets after ≈: the same amount, converted by molar mass.

Test system: Acinetobacter baumannii
Experiment: Antimicrobial activity against ISAba1 linked with the blaOXA-51-type beta-lactamase harboring Acinetobacter baumannii zeta clonal group isolate 21 expressing ampC, ompA, adeB, adeM, aacC2, blaSHV-5 by Etest method
Type: functional

Row | SMILES | MIC
1 | C[C@@H](O)[C@H]1C(=O)N2C(C(=O)O)=C(S[C@@H]3CN[C@H](C(=O)N(C)C)C3)[C@H](C)[C@H]12 [MEROPENEM] | 16 µg/mL (≈ 41.7 µM)

Test system: Acinetobacter baumannii
Experiment: Antimicrobial activity against ISAba1 linked with the blaOXA-51-type beta-lactamase harboring Acinetobacter baumannii zeta clonal group isolate 22 expressing ampC, ompA, adeB, adeM, aadA1, aacA4, aacC2, blaSHV-5 by Etest method
Type: functional

Row | SMILES | MIC
2 | C[C@@H](O)[C@H]1C(=O)N2C(C(=O)O)=C(S[C@@H]3CN[C@H](C(=O)N(C)C)C3)[C@H](C)[C@H]12 [MEROPENEM] | > 32 µg/mL

Test system: Acinetobacter baumannii
Experiment: Antimicrobial activity against ISAba1 linked with the blaOXA-51-type beta-lactamase harboring Acinetobacter baumannii zeta clonal group isolate 23 expressing ampC, ompA, adeB, adeM, aadA1, aacA4, aacC2, aphA6 by Etest method
Type: functional

Row | SMILES | MIC
3 | C[C@@H](O)[C@H]1C(=O)N2C(C(=O)O)=C(S[C@@H]3CN[C@H](C(=O)N(C)C)C3)[C@H](C)[C@H]12 [MEROPENEM] | > 32 µg/mL

Test system: Acinetobacter baumannii
Experiment: Antimicrobial activity against ISAba1 linked with the blaOXA-51-type beta-lactamase harboring Acinetobacter baumannii zeta clonal group isolate 24 expressing ampC, ompA, adeB, adeM, aadA1, aacA4, aacC2, blaSHV-5 by Etest method
Type: functional

Row | SMILES | MIC
4 | C[C@@H](O)[C@H]1C(=O)N2C(C(=O)O)=C(S[C@@H]3CN[C@H](C(=O)N(C)C)C3)[C@H](C)[C@H]12 [MEROPENEM] | > 2 µg/mL

Test system: Acinetobacter baumannii
Experiment: Antimicrobial activity against ISAba1 linked with the blaOXA-51-type beta-lactamase harboring Acinetobacter baumannii zeta clonal group isolate 25 expressing ampC, ompA, adeB, adeM, aadA1, aacA4, aacC2, blaSHV-5 by Etest method
Type: functional

Row | SMILES | MIC
5 | C[C@@H](O)[C@H]1C(=O)N2C(C(=O)O)=C(S[C@@H]3CN[C@H](C(=O)N(C)C)C3)[C@H](C)[C@H]12 [MEROPENEM] | > 2 µg/mL

Test system: Acinetobacter baumannii
Experiment: Antimicrobial activity against ISAba1 linked with the blaOXA-51-type beta-lactamase harboring Acinetobacter baumannii zeta clonal group isolate 26 expressing ampC, ompA, adeB, adeM, aadA1, aacA4, aacC2, blaSHV-5 by Etest method
Type: functional

Row | SMILES | MIC
6 | C[C@@H](O)[C@H]1C(=O)N2C(C(=O)O)=C(S[C@@H]3CN[C@H](C(=O)N(C)C)C3)[C@H](C)[C@H]12 [MEROPENEM] | > 2 µg/mL

Test system: Acinetobacter baumannii
Experiment: Antimicrobial activity against Acinetobacter baumannii lambda clonal group isolate 27 expressing ampC, ompA, adeB, adeM, aadB, aadA1 by Etest method
Type: functional

Row | SMILES | MIC
7 | C[C@@H](O)[C@H]1C(=O)N2C(C(=O)O)=C(S[C@@H]3CN[C@H](C(=O)N(C)C)C3)[C@H](C)[C@H]12 [MEROPENEM] | 32 µg/mL (≈ 83.4 µM)

Test system: Acinetobacter baumannii
Experiment: Antimicrobial activity against ISAba1 linked with the blaOXA-51-type beta-lactamase harboring Acinetobacter baumannii lambda clonal group isolate 28 expressing ampC, ompA, adeM, aadB, aadA1 by Etest method
Type: functional

Row | SMILES | MIC
8 | C[C@@H](O)[C@H]1C(=O)N2C(C(=O)O)=C(S[C@@H]3CN[C@H](C(=O)N(C)C)C3)[C@H](C)[C@H]12 [MEROPENEM] | > 32 µg/mL

Test system: Acinetobacter baumannii
Experiment: Antimicrobial activity against ISAba1 linked with the blaOXA-51-type beta-lactamase harboring Acinetobacter baumannii lambda clonal group isolate 29 expressing ampC, ompA, adeM, aadB, aadA1 by Etest method
Type: functional

Row | SMILES | MIC
9 | C[C@@H](O)[C@H]1C(=O)N2C(C(=O)O)=C(S[C@@H]3CN[C@H](C(=O)N(C)C)C3)[C@H](C)[C@H]12 [MEROPENEM] | > 32 µg/mL

Test system: Acinetobacter baumannii
Experiment: Antimicrobial activity against ISAba1 linked with the blaOXA-51-type beta-lactamase harboring Acinetobacter baumannii lambda clonal group isolate 30 expressing ampC, ompA, adeB, adeM, aadB, aadA1 by Etest method
Type: functional

Row | SMILES | MIC
10 | C[C@@H](O)[C@H]1C(=O)N2C(C(=O)O)=C(S[C@@H]3CN[C@H](C(=O)N(C)C)C3)[C@H](C)[C@H]12 [MEROPENEM] | > 32 µg/mL

Test system: Acinetobacter baumannii
Experiment: Antimicrobial activity against Acinetobacter baumannii nu clonal group isolate 31 expressing ampC, ompA, adeB, adeM, aadB, aadA2 by Etest method
Type: functional

Row | SMILES | MIC
11 | C[C@@H](O)[C@H]1C(=O)N2C(C(=O)O)=C(S[C@@H]3CN[C@H](C(=O)N(C)C)C3)[C@H](C)[C@H]12 [MEROPENEM] | 0.38 µg/mL (≈ 0.991 µM)

Test system: Acinetobacter baumannii
Experiment: Antimicrobial activity against Acinetobacter baumannii nu clonal group isolate 32 expressing ampC, ompA, adeB, adeM, aadB, aadA2 by Etest method
Type: functional

Row | SMILES | MIC
12 | C[C@@H](O)[C@H]1C(=O)N2C(C(=O)O)=C(S[C@@H]3CN[C@H](C(=O)N(C)C)C3)[C@H](C)[C@H]12 [MEROPENEM] | 0.38 µg/mL (≈ 0.991 µM)

Test system: Acinetobacter baumannii
Experiment: Antimicrobial activity against Acinetobacter baumannii nu clonal group isolate 33 expressing ampC, ompA, adeB, adeM by Etest method
Type: functional

Row | SMILES | MIC
13 | C[C@@H](O)[C@H]1C(=O)N2C(C(=O)O)=C(S[C@@H]3CN[C@H](C(=O)N(C)C)C3)[C@H](C)[C@H]12 [MEROPENEM] | 0.38 µg/mL (≈ 0.991 µM)

Test system: Acinetobacter baumannii
Experiment: Antimicrobial activity against Acinetobacter baumannii nu clonal group isolate 34 expressing ampC, ompA, adeB, adeM by Etest method
Type: functional

Row | SMILES | MIC
14 | C[C@@H](O)[C@H]1C(=O)N2C(C(=O)O)=C(S[C@@H]3CN[C@H](C(=O)N(C)C)C3)[C@H](C)[C@H]12 [MEROPENEM] | 0.38 µg/mL (≈ 0.991 µM)

Test system: Acinetobacter baumannii
Experiment: Antimicrobial activity against Acinetobacter baumannii eta clonal group isolate 35 expressing ampC, ompA, adeB, adeM by Etest method
Type: functional

Row | SMILES | MIC
15 | C[C@@H](O)[C@H]1C(=O)N2C(C(=O)O)=C(S[C@@H]3CN[C@H](C(=O)N(C)C)C3)[C@H](C)[C@H]12 [MEROPENEM] | 0.75 µg/mL (≈ 1.96 µM)

Test system: Acinetobacter baumannii
Experiment: Antimicrobial activity against Acinetobacter baumannii eta clonal group isolate 36 expressing ampC, ompA, adeB, adeM by Etest method
Type: functional

Row | SMILES | MIC
16 | C[C@@H](O)[C@H]1C(=O)N2C(C(=O)O)=C(S[C@@H]3CN[C@H](C(=O)N(C)C)C3)[C@H](C)[C@H]12 [MEROPENEM] | 0.75 µg/mL (≈ 1.96 µM)

Test system: Acinetobacter baumannii
Experiment: Antimicrobial activity against Acinetobacter baumannii unique clonal group isolate 37 expressing ampC, ompA, adeB, adeM by Etest method
Type: functional

Row | SMILES | MIC
17 | C[C@@H](O)[C@H]1C(=O)N2C(C(=O)O)=C(S[C@@H]3CN[C@H](C(=O)N(C)C)C3)[C@H](C)[C@H]12 [MEROPENEM] | 1.5 µg/mL (≈ 3.91 µM)

Test system: Acinetobacter baumannii
Experiment: Antimicrobial activity against Acinetobacter baumannii unique clonal group isolate 38 expressing ampC, ompA, adeB, adeM by Etest method
Type: functional

Row | SMILES | MIC
18 | C[C@@H](O)[C@H]1C(=O)N2C(C(=O)O)=C(S[C@@H]3CN[C@H](C(=O)N(C)C)C3)[C@H](C)[C@H]12 [MEROPENEM] | 0.38 µg/mL (≈ 0.991 µM)

Test system: Acinetobacter baumannii
Experiment: Antimicrobial activity against Acinetobacter baumannii unique clonal group isolate 39 expressing ampC, ompA, adeM by Etest method
Type: functional

Row | SMILES | MIC
19 | C[C@@H](O)[C@H]1C(=O)N2C(C(=O)O)=C(S[C@@H]3CN[C@H](C(=O)N(C)C)C3)[C@H](C)[C@H]12 [MEROPENEM] | 0.25 µg/mL (≈ 0.652 µM)

Test system: Acinetobacter baumannii
Experiment: Antimicrobial activity against ISAba1 linked with the blaOXA-51-type beta-lactamase harboring Acinetobacter baumannii unique clonal group isolate 40 expressing ampC, ompA, adeB, adeM, aadA1, aacA4, aacC2, blaSHV-5 by Etest method
Type: functional

Row | SMILES | MIC
20 | C[C@@H](O)[C@H]1C(=O)N2C(C(=O)O)=C(S[C@@H]3CN[C@H](C(=O)N(C)C)C3)[C@H](C)[C@H]12 [MEROPENEM] | > 32 µg/mL
